Legend:
[1] = tested on: Oryza sativa 'M205' (rice); settings: in vivo
Procedure: (§1) Evaluation of Postemergence Herbicidal Safening in Water-Seeded Rice
(§2) Pre-germinated rice was applied directly into a flooded rice paddy. The rice paddy was prepared as per normal cultural practices, by applying appropriate fertilizers, working and leveling the ground before flooding, with water flooded across the entire field to a depth of 1 to 5 inches prior to seeding with the pre-germinated rice seed.
(§3) Treatments consisted of penoxsulam and clomazone applied alone and in combination directly into the flooded rice paddy as granular formulated treatments. These treatments could also be applied as liquid applications directly into the water. Clomazone was applied the day of rice seeding, at 13 days after rice seeding, and in combination with penoxsulam at 13 days after rice seeding. Penoxsulam was applied alone and in combination with clomazone at 13 days after rice seeding.
(§4) Colby's equation was used to determine the herbicidal effects expected from the mixtures (Colby, S. R. 1967. Calculation of the synergistic and antagonistic response of herbicide combinations. Weeds 15:20-22.).
(§5) The following equation was used to calculate the expected activity of mixtures containing two active ingredients, A and B: Expected=A+B−(A×B/100)
(§6) A=observed efficacy of active ingredient A at the same concentration as used in the mixture.
(§7) B=observed efficacy of active ingredient B at the same concentration as used in the mixture.

[2] = tested on: Oryza sativa 'M205' (rice); experiment: Rice % stand reduction, postemergence safening in water-seeded rice
Procedure: as §1, §2, §3, §4, §5, §6, §7

[3] = tested on: Echinochloa oryzoides (watergrass); experiment: % visual weed control in water-seeded rice, ECHOR; assay type: in vivo; settings: 13 days after seeding, 27 days after treatment
Procedure: as §2, §3, §4, §5, §6, §7

[4] = tested on: Leptochloa fascicularis (sprangletop); experiment: % visual weed control in water-seeded rice, LEFFA; assay type: in vivo; settings: 13 days after seeding, 27 days after treatment
Procedure: as §2, §3, §4, §5, §6, §7

[5] = tested on: Cyperus difformis (smallflower umbrella sedge); experiment: % visual weed control in water-seeded rice, CYPDI; assay type: in vivo; settings: 13 days after seeding, 27 days after treatment
Procedure: as §2, §3, §4, §5, §6, §7

## COc1cnc(OC)n2nc(NS(=O)(=O)c3c(OCC(F)F)cccc3C(F)(F)F)nc12 [Penoxsulam, 2-(2,2-difluoroethoxy)-N-(5,8-dimethoxy[1,2,4]triazolo[1,5-c]pyrimidin-2-yl)-6-(trifluoromethyl)benzenesulfonamide]
[1]
  Rice % Visual Injury Ratings ORYSA (1) Obs: 12%
  Rice % Visual Injury Ratings ORYSA (2) Obs: 9%
  Rice % Visual Injury Ratings ORYSA (3) Obs: 5%
  injury to rice (text summary of Table 1): slight injury
[2]; in vivo
  Rice % Stand Reduction Ratings ORYSA (1) Exp: 27%
  Rice % Stand Reduction Ratings ORYSA (1) Obs: 27%
  Rice % Stand Reduction Ratings ORYSA (2) Exp: 33%
  Rice % Stand Reduction Ratings ORYSA (2) Obs: 33%
  Rice % Stand Reduction Ratings ORYSA (3) Exp: 33%
  Rice % Stand Reduction Ratings ORYSA (3) Obs: 33%
  impact on the rice stand (text summary of Table 2): slight negative impact
[3]; penoxsulam 40 g ai/ha alone
  % Weed Control Ratings ECHOR (1) Obs: 98%
[4]; penoxsulam 40 g ai/ha alone
  % Weed Control Ratings LEFFA (2) Obs: 74%
[5]; penoxsulam 40 g ai/ha alone
  % Weed Control Ratings CYPDI (3) Obs: 99%

## CC1(C)CON(Cc2ccccc2Cl)C1=O [Clomazone, 2-[(2-chlorophenyl)methyl]-4,4-dimethyl-3-isoxazolidinone]
[1]
  visual injury to rice (text summary of Table 1): 0-3%
[2]; clomazone alone
  effect on the rice stand (text summary of Table 2): negligible effect
[2]; in vivo
  Rice % Stand Reduction Ratings ORYSA (3) Exp: 3%
  Rice % Stand Reduction Ratings ORYSA (3) Obs: 3%
[3]; clomazone 224 g ai/ha alone
  % Weed Control Ratings ECHOR (1) Obs: 93%
[3]; clomazone 336 g ai/ha alone
  % Weed Control Ratings ECHOR (1) Obs: 96%
[3]; clomazone 448 g ai/ha alone
  % Weed Control Ratings ECHOR (1) Obs: 97%
[4]; clomazone 224 g ai/ha alone
  % Weed Control Ratings LEFFA (2) Obs: 98%
[4]; clomazone 336 g ai/ha alone
  % Weed Control Ratings LEFFA (2) Obs: 99%
[4]; clomazone 448 g ai/ha alone
  % Weed Control Ratings LEFFA (2) Obs: 99%
[5]; clomazone 224 g ai/ha alone
  % Weed Control Ratings CYPDI (3) Obs: 73%
[5]; clomazone 336 g ai/ha alone
  % Weed Control Ratings CYPDI (3) Obs: 88%
[5]; clomazone 448 g ai/ha alone
  % Weed Control Ratings CYPDI (3) Obs: 87%

Reference: US8268747B2, “Safening penoxsulam herbicide injury in water-seeded, direct-seeded and transplanted paddy rice” (Dow AgroSciences, LLC., priority 2009, dated 2012)
